From publication PMC9181938, “Fluorinated Analogues of Lepidilines A and C: Synthesis and Screening of Their Anticancer and Antiviral Activity” (Molecules, 2022)
Counter-ions that a name gives are not always drawn. Like-named read-outs stand apart in the source and are kept apart here.

Columns and labels:
[1] = system: Human herpesvirus 5 (HCMV); assay: Antiviral activity assay (0.1–1000 µM), IC50, plaque reduction; type: cell-based; settings: Human betaherpesvirus 5, 20 PFU/well
Method: (§1) Antiviral properties of compounds 1e–1g, 1e[PF6], 8a–8d, and 9a were assessed against five viruses: Human herpesvirus 1 (HSV-1, VR-539), Human parainfluenza virus type 3 (HPIV-3, VR-93), Human adenovirus 5 (AdV5, VR-5), Human herpesvirus 5 (HCMV, VR-977), and Encephalomyocarditis virus (EMCV, VR-1479). Viruses were purchased from the American Type Culture Collection (ATCC, Manassas, VA, USA).
(§2) All tested compounds were dissolved in DMSO (dimethyl sulfoxide, Sigma-Aldrich, Darmstadt, Germany) and then suspended in Minimum Essential Medium (MEM; Sigma-Aldrich, Darmstadt, Germany) supplemented with 2% heat-inactivated fetal bovine serum (FBS; Sigma-Aldrich, Darmstadt, Germany), 2 mM L-glutamine (Sigma-Aldrich, Darmstadt, Germany), and 100 units/mL penicillin G with […] streptomycin (Sigma-Aldrich, Darmstadt, Germany).
(§3) Investigated cells were propagated in Minimum Essential Medium (MEM; Sigma-Aldrich, Darmstadt, Germany) supplemented with 10% heat-inactivated fetal bovine serum (FBS; Sigma-Aldrich, Darmstadt, Germany) and 100 units/mL penicillin G with […] streptomycin (Sigma-Aldrich, Darmstadt, Germany). After reaching 80–90% confluency, cells were harvested with trypsin (Life Technologies, Warsaw, Poland) and seeded into 96-well microplates at 2 × 10^5 cells/mL after overnight incubation of cells at 37 °C in a humidified atmosphere containing 5% CO2.
(§4) The culture medium was removed from confluent cells grown in 96-well microplates, and the cells were inoculated with virus solutions in MEM supplemented with 2% FBS and antibiotics (HSV-1 MOI 0.005, 1000 virions/mL; HPIV-3 MOI 0.01, 2000 virions/mL; AdV5 MOI 0.005, 1000 virions/mL; EMCV 0.005, 1000 virions/mL; HCMV 20 PFU/well (plaque-forming units per well). After a 1-h (HSV-1, HPIV-3, AdV5, and EMCV) or 2-h adsorption period (HCMV), residual viral particles were removed, and infected cells were further incubated with MEM supplemented with 2% FBS containing compound concentrations in the range from 0.1 to 1000 µM [38]. All experiments were carried out in triplicate. The cell monolayers were incubated with the investigated compounds at 37 °C in a humidified atmosphere containing 5% CO2 until a cytopathic effect (CPE) was visible. Viral infection was evaluated by the MTT assay (as described previously) or plaque reduction assay. HCMV plaques were counted under an inverted microscope, Olympus IX73 (Olympus, Tokyo, Japan). Antiviral activity was expressed as the concentration required to reduce the number of viral plaques to 50% of the control (virus-infected but untreated).

[2] = system: Human herpesvirus 1 (HSV-1); assay: Antiviral activity assay (0.1–1000 µM), IC50; type: cell-based; settings: Human alphaherpesvirus 1; HSV-1, MOI 0.005
Method: as §1, §2, §3, §4

[3] = system: Human parainfluenza virus type 3 (HPIV-3); assay: Antiviral activity assay (0.1–1000 µM), IC50; type: cell-based; settings: Human respirovirus 3, HPIV-3, MOI 0.01; read-out: IC50 HPIV-3
Method: as §1, §2, §3, §4

[4] = system: Human adenovirus 5 (AdV5); assay: Antiviral activity assay (0.1–1000 µM), IC50; type: cell-based; settings: Human mastadenovirus C
Method: as §1, §2, §3, §4

[5] = system: Encephalomyocarditis virus (EMCV); assay: Antiviral activity assay (0.1–1000 µM), IC50; type: cell-based; settings: Cardiovirus A, MOI 0.005, read-out: IC50 EMCV
Method: as §1, §2, §3, §4

[6] = Cytotoxicity screening at 10 µM (MTT); type: cell-based, Macaca mulatta; settings: Macaca mulatta, LLC-MK2 cells, read-out: Cell line (viability %) LLC-MK2
[7] = Cytotoxicity screening at 10 µM (MTT); type: cell-based, Human; settings: human, HeLa cells, read-out: Cell line (viability %) HeLa
[8] = system: Human herpesvirus 1 (HSV-1); assay: Antiviral screening at 10 µM; type: cell-based; settings: Human alphaherpesvirus 1, antiviral screening, HSV-1-infected cells, read-out: Cell line (viability %) HSV-1
Method: as §1, with “1a, 1c, 1a[PF6], 1c[PF6], 9b[PF6], 9c[PF6], 10a–10d, 2a,” for “1e–1g, 1e[PF6], 8a–8d,”, “2b” for “9a”
as §2
(§5) Vero, LLC-MK2, NCTC clone 929, MRC-5, and HeLa cells were propagated in Minimum Essential Medium (MEM; Sigma-Aldrich, Darmstadt, Germany) supplemented with 10% heat-inactivated fetal bovine serum (FBS; Sigma-Aldrich, Darmstadt, Germany) and 100 units/mL penicillin G with […] streptomycin (Sigma-Aldrich, Darmstadt, Germany). Upon reaching 80–90% confluency, cells were harvested with 0.25% trypsin in 1 mM EDTA (Life Technologies, Warsaw, Poland) and seeded onto 96-well microplates at 2 × 10^5 cells/mL. After overnight incubation of cells at 37 °C in a humidified atmosphere containing 5% CO2, the culture medium was removed, and cells were inoculated with the respective virus solution in MEM supplemented with 2% FBS and antibiotics (HSV-1 MOI 0.005, 1000 virions/mL; HPIV-3 MOI 0.01, 2000 virions/mL; AdV5 MOI 0.005, 1000 virions/mL, EMCV MOI 0.005, 1000 virions/mL, HCMV 20 PFU (plaque forming units) per well). After a 1-h (HSV-1, HPIV-3, AdV5, and EMCV) or 2-h adsorption period (HCMV), the residual virus was removed, and the infected cells were further incubated with a 100 μL freshly prepared solution of tested compounds diluted with a maintenance medium supplemented with 2% FBS to obtain compound concentrations of 10 µM. The final concentration of DMSO in the medium was 0.1%. All experiments were carried out in triplicate. The cells monolayers were incubated with the compounds at 37 °C in a humidified atmosphere containing 5% CO2 until the typical cytopathic effect (CPE) was visible. Viral infection was evaluated by the MTT assay or plaque reduction assay (HCMV). After incubation with drugs, the cells were treated with 3-(4,5-dimethylthiazol-2-yl)-2,5-diphenyltetrazolium bromide dye solution (MTT, Sigma-Aldrich, Darmstadt, Germany) (25 μL, 5 mg/mL) for 2 h and lysed with solvent solution (100 μL) containing: DMF (Sigma-Aldrich, Darmstadt, Germany) (45 mL), SDS (Sigma-Aldrich, Darmstadt, Germany) (13.5 g), and distilled water (55 mL). After overnight incubation at 37 °C, the optical density at 550 nm and a reference wavelength of 670 nm were measured on a microplate spectrophotometer, Varioskan Lux (Thermo Fisher Scientific, Waltham, MA, USA). The number of HCMV plaques was counted under an inverted microscope Olympus IX73 (Olympus, Tokyo, Japan).

[9] = system: Human parainfluenza virus type 3 (HPIV-3); assay: Antiviral screening at 10 µM; type: cell-based; settings: Human respirovirus 3, antiviral screening, HPIV-3-infected cells, read-out: Cell line (viability %) HPIV-3
Method: as §1, with “1a, 1c, 1a[PF6], 1c[PF6], 9b[PF6], 9c[PF6], 10a–10d, 2a,” for “1e–1g, 1e[PF6], 8a–8d,”, “2b” for “9a”
as §2, §5

[10] = system: Human adenovirus 5 (AdV5); assay: Antiviral screening at 10 µM; type: cell-based; settings: Human mastadenovirus C, AdV5-infected cells, read-out: Cell line (viability %) AdV5
Method: as §1, with “1a, 1c, 1a[PF6], 1c[PF6], 9b[PF6], 9c[PF6], 10a–10d, 2a,” for “1e–1g, 1e[PF6], 8a–8d,”, “2b” for “9a”
as §2, §5

[11] = system: Encephalomyocarditis virus (EMCV); assay: Antiviral screening at 10 µM; type: cell-based; settings: Cardiovirus A, EMCV-infected cells, read-out: Cell line (viability %) EMCV
Method: as §1, with “1a, 1c, 1a[PF6], 1c[PF6], 9b[PF6], 9c[PF6], 10a–10d, 2a,” for “1e–1g, 1e[PF6], 8a–8d,”, “2b” for “9a”
as §2, §5

[12] = Cytotoxicity screening at 10 µM (MTT); type: cell-based, Cercopithecus aethiops; settings: Cercopithecus aethiops, Vero cells, read-out: Cell line (viability %) Vero
[13] = Cytotoxicity screening at 10 µM (MTT); type: cell-based, Mus musculus; settings: Mus musculus, NCTC clone 929 cells, read-out: Cell line (viability %) NCTC clone 929
[14] = Cytotoxicity screening at 10 µM (MTT); type: cell-based, Human; settings: human, MRC-5 cells, read-out: Cell line (viability %) MRC-5
[15] = system: Human herpesvirus 5 (HCMV); assay: Antiviral screening at 10 µM, plaque reduction; type: cell-based; settings: Human betaherpesvirus 5, antiviral screening, HCMV-infected cells, read-out: Cell line (viability %) HCMV
Method: as §1, with “1a, 1c, 1a[PF6], 1c[PF6], 9b[PF6], 9c[PF6], 10a–10d, 2a,” for “1e–1g, 1e[PF6], 8a–8d,”, “2b” for “9a”
as §2, §5

[16] = Cytotoxicity MTT assay (0.1–1000 µM), CC50; type: cell-based, Human; settings: human, HeLa cells

Compound | melting point | IC50 [1] | IC50 [2] | IC50 [3] | IC50 ([4]; AdV5, MOI 0.005, read-out: IC50 AdV5) | IC50 [5] | viability at 48 h, 10 µM [6] | viability at 48 h, 10 µM [7] | viability at 10 µM [8] | viability at 10 µM [9] | viability at 10 µM [10] | viability at 10 µM [11] | viability at 48 h, 10 µM [12] | viability at 48 h, 10 µM [13] | viability at 48 h, 10 µM [14] | viability at 10 µM [15] | CC50 at 48 h ([16]; MTT, 48 h, read-out: CC50 Cancer Cell Lines HeLa) | CC50 at 48 h ([16]; Table S2, range 0.1-1000 µM, read-out: Cell line (CC50 M) HeLa) | IC50 ([4]; Table S4, range 0.1-1000 µM, AdV5, read-out: IC50 (M) AdV5)
FC(F)(F)c1cccc(Cn2c[n+](OCc3ccccc3)c(-c3ccccc3)c2-c2ccccc2)c1.[Br-] | 107 to 110 °C |  |  |  |  |  |  |  |  |  |  |  |  |  |  |  |  |  | 
COc1cccc(CO[n+]2cn(Cc3cccc(C(F)(F)F)c3)c(-c3ccccc3)c2-c2ccccc2)c1.[Br-] | 132 to 134 °C |  |  |  |  |  |  |  |  |  |  |  |  |  |  |  |  |  | 
Cc1cc(C)cc(CO[n+]2cn(Cc3cccc(C(F)(F)F)c3)c(-c3ccccc3)c2-c2ccccc2)c1.[Br-] | 156 to 158 °C |  |  |  |  |  |  |  |  |  |  |  |  |  |  |  |  |  | 
Cc1c(C)[n+](Cc2ccccc2)cn1Cc1cccc(F)c1 (as salt: phosphate) [1e[PF6]] [1-Benzyl-3-(3-fluorobenzyl)-4,5-dimethylimidazolium hexafluorophosphate] | 110 to 112 °C |  |  |  |  |  |  |  |  |  |  |  |  |  |  |  |  |  | 
Cc1c(C)[n+](Cc2ccccc2)cn1Cc1cccc(F)c1 [1e[PF6], 1-Benzyl-3-(3-fluorobenzyl)-4,5-dimethylimidazolium hexafluorophosphate] |  | > 150 µM | > 56.3 µM | > 150 µM | > 8e-08 M | > 148 µM |  |  |  |  |  |  |  |  |  |  |  |  | 
c1ccc(Cn2c[n+](Cc3ccccc3)c(-c3ccccc3)c2-c2ccccc2)cc1 [9b[PF6]] |  |  |  |  |  |  | 8% | 6.8% | 11.7% | 12% | 13.9% | 9.3% | 6.7% | 4.1% | 12.8% | 6.3% |  |  | 
COc1cccc(Cn2c[n+](Cc3ccccc3)c(-c3ccccc3)c2-c2ccccc2)c1 [9c[PF6]] |  |  |  |  |  |  | 7.6% | 7.1% | 13.3% | 12.8% | 14.4% | 9.4% | 6.6% | 6.5% | 12.6% | 1.9% |  |  | 
c1c[n+](C23CC4CC(CC(C4)C2)C3)cn1C12CC3CC(CC(C3)C1)C2 [Compound 2a, 1,3-diadamantyl imidazolium bromide, reference compound] |  |  |  |  |  |  | 7.8% | 23% | 13.9% | 8.3% | 50.2% | 7.1% | 7.9% | 8.9% | 73.7% | 9.7% |  |  | 
c1c[n+](OC23CC4CC(CC(C4)C2)C3)cn1OC12CC3CC(CC(C3)C1)C2 [Compound 2b] |  |  |  |  |  |  | 7.8% | 7.5% | 14.1% | 8.7% | 17.1% | 9.6% | 15.2% | 6.6% | 12.7% | 2.8% |  |  | 
COc1cccc(Cn2c(C)c(C)n(Cc3ccccc3)c2=S)c1 [Compound 10b] |  |  |  |  |  |  | 9.1% | 13.3% | 16.5% | 7.9% | 39.5% | 8.1% | 29.1% | 59% | 100% | 1.9% |  |  | 
S=c1n(Cc2ccccc2)c(-c2ccccc2)c(-c2ccccc2)n1Cc1ccccc1 [Compound 10c] |  |  |  |  |  |  | 15.8% | 7.8% | 14.7% | 10.9% | 16% | 8.5% | 11.4% | 35.5% | 73.8% | 7.1% |  |  | 
COc1cccc(Cn2c(-c3ccccc3)c(-c3ccccc3)n(Cc3ccccc3)c2=S)c1 [Compound 10d] |  |  |  |  |  |  | 53.6% | 74% | 14.6% | 10.6% | 68% | 8.5% | 95.8% | 91.5% | 96.8% | 1.9% | < 400 µM | 318 ± 47.5 µM | > 0.000318 M
